Test results taken from patent US7361680B2, “Indole compounds useful for the treatment of cancer” (The Regents of the University of California, priority 1999, dated 2008).
Residues, ends and D or L forms follow the SMILES beside them. *: point of attachment. Cbz = O=C(OCc1ccccc1)*; CH2F = FC*

Key:
CLL cells [1] = experiment: Viability of CLL cells, erythrocin B exclusion assay; conditions: fludarabine 10 nM or etodolac 10 μM alone, 48 hours; FIG. 3
Bag-1 = Bag-1 level in LNCaP cells, SDS-PAGE immunoblot; assay type: cell-based; conditions: co-incubation with 5.0 μM MG-132 or pre-incubation with Z-VAD
Mcl-1 = Mcl-1 level in LNCaP cells, SDS-PAGE immunoblot; assay type: cell-based; conditions: co-incubation with 5.0 μM MG-132 or pre-incubation with Z-VAD, LNCaP
in vitro = conditions: human, primary normal peripheral blood lymphocyte (PBL) cells
CLL cells [2] = experiment: MTT cytotoxicity assay, CLL cells; assay type: cell-based; conditions: Homo sapiens, CLL cell, 72 hours, duplicate
Method: The compounds of the invention were screened for CLL apoptotic activity by flow cytometry and a MTT-based assay. […] Primary PBL cells were acquired from the San Diego Blood Bank, San Diego, Calif. DiOC6 and PI dyes were obtained from Molecular Probes, Eugene, Oreg. Otherwise, unless indicated, all other reagents were purchased from Sigma (St. Louis, Mo.), and all test compounds were dissolved in sterile DMSO.
To get a more concise measure of the EC50 and confirm the flow cytometry results, a MTT (3-(4,5-dimethylthiazol-2-yl)-2,5-diphenyl tertrazolium bromide) assay using a procedure similar to that described by Mosmann, T., J Immunol Methods. 1983, 65, 55-63, was performed on all analogs. This method provided a larger number of datapoints so that a value for the EC50 could be extrapolated.
This assay was based on a procedure described by Mosmann. Briefly, in each well of a 96-well plate, 5×10^5 CLL cells were suspended in 100 μL of […] medium containing 10% FBS, 100 μg/mL penicillin, and 100 μg/mL streptomycin. Serial dilution of test compounds were then performed in duplicate across the plate to establish a concentration gradient from 0 to 1000 μM. After 72 hours of incubation at 37° C., the cells were incubated for 6 more hours in the presence of 20 μL of 5 mg/mL MTT (3-(4,5-dimethylthiazol-2-yl)-2,5-diphenyl tertrazolium bromide) before dissolving the resulting crystals in 50 μL lysis buffer (15% SDS, 15 mM HCl) overnight. Afterwards, the absorbance of each well was measured at […] in a Finstrument Microplate Reader, and the data was analyzed by Graphpad Prism Software, version 2.0b.

For `Nc1nc(F)nc2c1ncn2[C@@H]1O[C@H](CO)[C@@H](O)[C@@H]1O` [fludarabine], the “cytotoxic effect on CLL cells, either drug alone” value (CLL cells [1]) was “ineffective”.

For `CC(NC(=O)C(NC(=O)OCc1ccccc1)C(C)C)C(=O)NC(CC(=O)O)C(=O)CF` (stereo not drawn) [Z-VAD] (Cbz-Val-Ala-Asp-CH2F; configuration not given here), the “effect on the etodolac-induced fall in Bag-1 levels” value (Bag-1) was “did not prevent” and the “effect on the etodolac-induced fall in Mcl-1 levels” value (Mcl-1) was “did not prevent”.

For `CC(C)C[C@@H](C=O)NC(=O)[C@H](CC(C)C)NC(=O)[C@H](CC(C)C)NC(=O)OCc1ccccc1` [MG-132] (Cbz-Leu-Leu-Leu-aldehyde), the “effect on the etodolac-induced fall in Bag-1 levels” value (Bag-1) was “prevented” and the “effect on the etodolac-induced fall in Mcl-1 levels” value (Mcl-1) was “prevented”.

In the case of `CCc1cccc2c3c([nH]c12)C(CC)(CC=N)OCC3` (centres unmarked) [Compound 7, 2-(1,8-Diethyl-1,3,4,9-tetrahydropyrano[3,4-b]indol-yl)-ethylideneamine], the CC50 at 48 h (in vitro) is reported as 250 to 500 µM and the EC50 (CLL cells [2]) is reported as 714 µM.

Work on `CCc1cccc2c3c([nH]c12)C(CC)(CCOC(C)=O)OCC3` (centres unmarked) [Compound 10, Acetic acid-2-(1,8-diethyl-1,3,4,9-tetrahydropyrano[3,4-b]indol-1-yl)-ethyl ester] yielded a CC50 at 48 h (in vitro) of 100 to 250 µM and an EC50 (CLL cells [2]) of 686 µM.

`CCc1cccc2c3c([nH]c12)C(CC)(CCOCSC)OCC3` (centres unmarked) [Compound 9, 1,8-Diethyl-1-(2-methylsufanylmethoxyethyl)-1,3,4,9-tetrahydropyrano[3,4-b]indole] showed an EC50 (CLL cells [2]) of 324 µM.

`CCc1cccc2c3c([nH]c12)C(CC)(CCF)OCC3` (centres unmarked) [Compound 3, 1,8-Diethyl-1-(2-fluoroethyl)-1,3,4,9-tetrahydropyrano[3,4-b]indole] showed a CC50 at 48 h (in vitro) of less than 100 µM and an EC50 (CLL cells [2]) of 767 µM.

`CCc1cccc2c3c([nH]c12)C(CC)(CC(O)O)OCC3` (centres unmarked) [Compound 11, 2-(1,8-Diethyl-1,3,4,9-tetrahydropyrano[3,4-b]indol-1-yl)-ethane-1,1-diol] showed a melting point of 158 to 159 °C and an EC50 (CLL cells [2]) of 416 µM.

Work on `CCc1cccc2c3c([nH]c12)C(CC)(CC=O)OCC3` (centres unmarked) [Compound 8, (1,8-Diethyl-1,3,4,9-tetrahydropyrano[3,4-b]indol-1-yl)-acetaldehyde] yielded a CC50 at 48 h (in vitro) of less than 100 µM and an EC50 (CLL cells [2]) of 111 µM.

`CCc1cccc2c3c([nH]c12)C(CC)(CCCl)OCC3` (centres unmarked) [Compound 4, 1-(2-Chloroethyl)-1,8-diethyl-1,3,4,9-tetrahydropyrano[3,4-b]indole] showed a CC50 at 48 h (in vitro) of less than 100 µM and an EC50 (CLL cells [2]) of 572 µM.

Work on `CCc1cccc2c3c([nH]c12)C(CC)(CC)OCC3` [Compound 5, 1,1,8-Triethyl-1,3,4,9-tetrahydropyrano[3,4-b]indole] yielded a melting point of 133 to 134 °C and an EC50 (CLL cells [2]) greater than 1000 µM.

`CCc1cccc2c3c([nH]c12)C(CC)(CC(C)=O)OCC3` (centres unmarked) [Compound 13, 1-(1,8-Diethyl-1,3,4,9-tetrahydropyrano[3,4-b]indol-1-yl)-propan-2-one] gave a CC50 at 48 h (in vitro) greater than 750 µM and an EC50 (CLL cells [2]) greater than 1000 µM.

`CCc1cccc2c3c([nH]c12)C(CC)(CC(C)O)OCC3` (centres unmarked) [Compound 12, 1-(1,8-Diethyl-1,3,4,9-tetrahydropyrano[3,4-b]indol-1-yl)-propan-2-ol] gave a CC50 at 48 h (in vitro) of 250 to 500 µM and an EC50 (CLL cells [2]) of 272 µM.

Work on `CCc1cccc2c3c([nH]c12)C(CC)(CCOC)OCC3` (centres unmarked) [Compound 2, 1,8-Diethyl-1-(2-methoxyethyl)-1,3,4,9-tetrahydropyrano[3,4-b]indole] yielded a CC50 at 48 h (in vitro) greater than 750 µM and an EC50 (CLL cells [2]) greater than 1000 µM.
